Like-named read-outs stand apart in the source and are kept apart here.
Tests used:
Tyrosinase [1] = settings: for Inhibitory rate on tyrosinase, Average: average over 5, 0.1, 0.05 and 0.025 mmol/L; for effect on tyrosinase reaction course (in words): absorbance time course 10-180 s compared with negative control completed at 60 s; for highest inhibition rate on tyrosinase: highest rate among the tested concentrations
Protocol: The peptide solution (5 mmol/L) was then diluted 50-fold (0.1 mmol/L), 100-fold (0.05 mmol/L), and 200-fold (0.025 mmol/L), respectively, and then the inhibitory rate was calculated after a 5 min reaction.

B. mori = settings: CRISPR/cas9 tool and mature peptide subcutaneous injection; cited from earlier work
[2] = test system: UV-irradiated guinea pig skin; assay type: in vivo, guinea pig (Cavia porcellus); settings: peptide solution 5 mmol/L painted on UV-irradiated back skin, sections after 24 h; for pathological tissue findings (Masson staining and HE staining): versus deionized water side
Protocol: Model preparation: Six adult healthy guinea pigs with normal development were selected. The fur on both sides of the back was shaved to expose a circular area with a diameter of 4 cm. Ultraviolet (UV) irradiation was performed at 10 cm from the skin in the exposed area, once daily with a dose of 700 mJ/cm^2, and continued for 7 consecutive days, with a cumulative dose of […]. A metal halide lamp was used as the light source with a power of 1000 W and a peak spectrum of 360 nm, including 70% long-wave ultraviolet (UVA) and 4% medium-wave ultraviolet (UVB). After UV-irradiation treatment, the peptide solution (5 mmol/L) was painted to the right, and an equal amount of deionized water was applied to the left. Tissue sections and staining observations were performed after 24 h.
Sectioning: Approximately 0.4 cm^3 of subcutaneous tissue from the drug administration area was excised, cleaned with physiological saline, and fixed. After dehydration (DIAPATH, Donatello, Milan, Italy) and hardening treatment, it was subsequently made transparent and subjected to a wax immersion treatment. After paraffin embedding (Wuhan Junjie Electronics Co., Ltd., JB-P5, Wuhan, China), the tissue was sectioned using a microtome (Shanghai Leica Instrument Co., Ltd., RM2016, Shanghai, China). The arranged sections were organized (Zhejiang Jinhua Kedi Instrument Equipment Co., Ltd., KD-P, Jinhua, China) for HE staining and Masson staining.
HE staining: The paraffin sections were placed in xylene I for 20 min, xylene II for 20 min, anhydrous ethanol I for 5 min, anhydrous ethanol II for 5 min, and 75% alcohol for 5 min for dewaxing treatment; after washing with water, they were placed into hematoxylin staining solution for 3–5 min, differentiated with differentiation solution after washing, and returned to blue with bluing solution after washing; after rinsing with running water, they were dehydrated with 85% and 95% alcohol solutions for 5 min each successively; after immersed into eosin staining solution for 5 min, they were placed in anhydrous ethanol I for 5 min, anhydrous ethanol II for 5 min, anhydrous ethanol III for 5 min, xylene I for 5 min, and xylene II for 5 min for transparency treatment. After, they were sealed with neutral gum, they were examined (Nikon Eclipse E100, Tokyo, Japan) and imaged (Nikon DS-U3, Tokyo, Japan) using a microscope.
Masson staining: The paraffin sections were placed in xylene I for 20 min, xylene II for 20 min, anhydrous ethanol I for 5 min, anhydrous ethanol II for 5 min, and 75% alcohol for 5 min for dewaxing treatment; after washing with water, they were immersed into Masson A solution overnight, washed with water, then immersed into a mixture of Masson B and Masson C for 1 min, washed with water, then differentiated using an alcohol solution containing 1% hydrochloric acid. Then, they were washed with water, then immersed into Masson D solution for 6 min, washed with water, then immersed into Masson E solution for 1 min, drained, and directly immersed into Masson F solution for 30 s. Subsequently, the sections were rinsed with 1% glacial acetic acid for differentiation, dehydrated with anhydrous ethanol three times for 5 min each, treated with xylene for transparency for 5 min, and then sealed with neutral gum. The sections were examined (Nikon Eclipse E100, Japan) and imaged (Nikon DS-U3, Japan) using a microscope.

Tyrosinase [3] = test system: Tyrosinase; set-up: method as in PMID 23134995; settings: cited from earlier work
From the text: Neuropeptides with biological functions were called neuropeptides if they were secreted by neural tissues and involved in nervous system functions, which were characterized by low content, high activity, and extensive and complex functions (including food intake regulation, improved metabolism, neural regulation and reproduction, etc.). However, there have been few reports on the pigmentation regulation of neuropeptide. One important function of BommoOK, as a multifunctional neuropeptide, was pigmentation regulation. In silkworm q-l (quail like) mutants, BommoOK was a losing function, a ...

[4] = 0.025 mmol/L, after 5 min reaction
[5] = 0.05 mmol/L, after 5 min reaction
[6] = 0.1 mmol/L, after 5 min reaction

Row | Compound | Inhibitory rate on tyrosinase (Tyrosinase [1]; [4]) | Inhibitory rate on tyrosinase (Tyrosinase [1]; [5]) [%] | Inhibitory rate on tyrosinase (Tyrosinase [1]; [6]) [%] | Inhibitory rate on tyrosinase, Average (Tyrosinase [1]; after 5 min reaction) [%] | pigmentation inhibition in B. mori (B. mori) | pathological tissue findings (Masson staining and HE staining) [2] | Inhibitory rate on tyrosinase (Tyrosinase [1]; 5 mmol/L, after 5 min reaction) [%] | whitening effect relative to β-arbutin (Tyrosinase [3]) | effect on tyrosinase reaction course (in words) (Tyrosinase [1]) | highest inhibition rate on tyrosinase (Tyrosinase [1]) | duration of whitening effect (Tyrosinase [3]) | inhibition rate on tyrosinase, all concentrations (Tyrosinase [1]; all concentrations (5, 0.1, 0.05, 0.025 mmol/L), after 5 min reaction) | melanin inhibition (melanocytes, melanin granules) ([2]; Masson and HE staining)
1 | NFDEIDRSSMPFPYAI [BommoOKA_type2, mature peptide of silkworm neuropeptide Orcokinin, […]] | 6.69±0.15% | 6.12±0.09 | 5.16±0.09 | 7.02±1.88 | key for pigmentation inhibition | Many inflammatory cells | – | – | – | – | – | – | –
2 | YDYISPYG [BommoOKA_type5, mature peptide of silkworm neuropeptide Orcokinin, YDYISPYG] | -2.68±1.07% | 3.25±1.57 | -0.19±1.08 | 1.58±3.28 | – | inflammatory factors were reduced, and epidermal hyperplasia improved | 5.93±0.94 | – | – | – | – | – | –
3 | Oc1ccc(OC2CCCCO2)cc1 (stereo not drawn) [deoxyarbutin] | – | – | – | – | – | – | – | more than 350 times | – | – | – | – | –
4 | NLDSLGGANF [BommoOKB_type1, mature peptide of silkworm neuropeptide Orcokinin, […]] | greater than 10% | – | 8.6±1.39 | 9.32±8.66 | – | significant epidermal hyperplasia | -4.02±0.82 | – | a certain inhibitory effect on tyrosinase | 19.69% | – | – | –
5 | FYHLYGQNFLDIDSPVSSFD [BommoOKA_type3] | 5.54±0.2% | – | 6.50±0.17 | 8.27±2.42 | – | – | 9.37±0.34 | – | a certain inhibitory effect on tyrosinase | – | – | – | –
6 | OC[C@H]1O[C@@H](Oc2ccc(O)cc2)[C@H](O)[C@@H](O)[C@@H]1O [β-Arbutin, reference compound] | 32.70±0.33% | 53.61±1.27 | 74.31±1.81 | 58.28±16.85 | – | – | 72.50±0.12 | – | – | more than 70% | more than 8 weeks | – | –
7 | EARHSGYLPYQMF [BommoOKA_type4, mature peptide of silkworm neuropeptide Orcokinin, […]] | 13.96±0.21% | 17.02±0.11 | – | 15.49±3.17 | – | inflammatory factors were reduced, and epidermal hyperplasia improved | 11.28±0.22 | – | a certain inhibitory effect on tyrosinase | 19.69% | – | greater than 10% | –
8 | NFDEIDRSSLNTFV [BommoOKA_type1, mature peptide of silkworm neuropeptide Orcokinin, […]] | 5.16±0.14% | 6.88±0.19 | 2.87±0.02 | 4.73±1.48 | – | loosely arranged tissues | 4.02±0.07 | – | seemed to tend to accelerate tyrosinase | – | – | – | many stretched melanin granules emerged

Reference: publication PMC11817372, “The Silkworm (Bombyx mori) Neuropeptide Orcokinin’s Efficiency in Whitening and Skincare” (International Journal of Molecular Sciences, 2025)
